From patent US7851637B2, “Compounds and methods for inhibiting the interaction of BCL proteins with binding partners” (Infinity Pharmaceuticals, Inc., priority 2004, dated 2010)

Legend:
Bcl-2 = Bcl-2 (Homo sapiens, UniProt P10415); assay: Bcl-2 binding affinity analysis (fluorescence polarization binding assay)
Excerpt: (§1) Bcl-2 and Bcl-xL binding can be determined using a variety of known methods. One such assay is a sensitive and quantitative in vitro binding assay using fluorescence polarization (FP) described by Wang, J. -L.; Zhang, Z -J.; Choksi, S.; Sjam. S.; Lu, Z.; Croce, C. M.; Alnenri, E. S.; Komgold, R.; Huang, Z. Cell permeable Bcl-2 binding peptides: a chemical approach to apoptosis induction in tumor cells. Cancer Res. 2000, 60, 1498-1502).
(§2) Bcl-2 and Bcl-xL binding affinity analysis data is presented below for various compounds of the invention.

Bcl-xL = Bcl-xL (Homo sapiens, UniProt Q07817); assay: Bcl-xL binding affinity analysis (fluorescence polarization binding assay); parameters: scale not given here
Excerpt: as §1, §2

Sequence of Bcl-xL (Q07817 whole entry): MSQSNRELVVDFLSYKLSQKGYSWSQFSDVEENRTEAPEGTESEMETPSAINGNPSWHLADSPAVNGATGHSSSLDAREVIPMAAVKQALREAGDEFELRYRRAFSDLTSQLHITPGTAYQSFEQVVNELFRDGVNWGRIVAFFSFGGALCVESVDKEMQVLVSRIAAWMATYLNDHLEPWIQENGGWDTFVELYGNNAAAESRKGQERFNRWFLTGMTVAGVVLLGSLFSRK
Sequence of Bcl-2 (P10415 whole entry): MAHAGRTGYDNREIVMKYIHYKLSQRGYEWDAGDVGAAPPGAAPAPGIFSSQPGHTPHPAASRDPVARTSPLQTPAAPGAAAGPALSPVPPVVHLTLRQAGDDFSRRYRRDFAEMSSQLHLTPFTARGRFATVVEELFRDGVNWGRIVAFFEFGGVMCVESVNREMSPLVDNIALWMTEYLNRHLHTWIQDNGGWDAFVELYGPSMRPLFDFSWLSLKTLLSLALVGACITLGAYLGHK

| SMILES | Ki (Bcl-2) | Bcl-XL binding affinity Ki (Bcl-xL) |
| --- | --- | --- |
| CC(C)C[C@@H](CN(C)C)N(Cc1ccccc1)Cc1cccc(CN2O[C@@H](CO)[C@@H]([C@H](C)O)[C@H]2C(=O)NCCCNC(=O)OC(C)(C)C)c1 [Compound 543] | 6000 to 50000 nM | ♯ |
| CC(C)CC(CN(C)C)N(Cc1cccc(CN2OC(CO)C(C(C)O)C2C(=O)NC2CC3CC(C2C)C3(C)C)c1)Cc1ccc(F)cc1O (stereo not drawn) [Compound 329] | < 800 nM | ♯ |
| CC(O)C1C(CO)ON(Cc2cccc(CNC(CCc3ccccc3)CN(C)C)c2)C1C(=O)NC1CC2CC(C1C)C2(C)C (stereo not drawn) [Compound 445] | < 800 nM | ♯ |
| C[C@H](NC(=O)[C@@H]1[C@H]([C@H](C)O)[C@H](CO)ON1Cc1cccc(CN(CCN(C)C)Cc2ccccc2)c1)c1ccc2ccccc2c1 [Compound 521] | 800 to 6000 nM | ♯ |
| CCCCC[C@H](O)C#Cc1ccc(CN2O[C@@H](CO)[C@@H]([C@H](C)O)[C@H]2C(=O)NCCCN(C)c2ccccc2)cc1 [Compound 46] | > 50000 nM | ♯ |
| CCOc1cccc(CN(Cc2cccc(CN3O[C@@H](CO)C([C@H](C)O)[C@H]3C(=O)N[C@H]3C[C@H]4C[C@@H]([C@@H]3C)C4(C)C)c2)[C@@H](CC(C)C)CN(C)C)c1O (stereo partly drawn) [Compound 334] | < 800 nM | ♯ |
| CC(C)CC(CN(C)C)N(Cc1cccc(CN2OC(CO)C(C(C)O)C2C(=O)NC2CC3CC(C2C)C3(C)C)c1)Cc1ccccc1N1CCOCC1 (stereo not drawn) [Compound 331] | < 800 nM | ♯ |
| C[C@@H]1[C@@H](NC(=O)[C@@H]2[C@H]([C@H](C)O)[C@H](CO)ON2CCCCN(CCN(C)C)Cc2ccccc2Cl)C[C@H]2C[C@@H]1C2(C)C [Compound 549] | 800 to 6000 nM | ♯ |
| C[C@H](O)[C@@H]1[C@H](CO)ON(Cc2cccc(CN(CCN(C)C)Cc3ccccc3)c2)[C@@H]1C(=O)NCc1ccc(-c2ccccc2)cc1 [Compound 526] | < 800 nM | ♯ |
| C[C@@H]1[C@@H](NC(=O)[C@@H]2[C@H]([C@H](C)O)[C@H](CO)ON2CCCCN(CCc2ccccc2)CCN(C)C)C[C@H]2C[C@@H]1C2(C)C [Compound 546] | 800 to 6000 nM | ♯ |
| C[C@@H](O)[C@H]1[C@@H](CO)ON(Cc2cccc(C#CCNC(=O)NC3CC3c3ccccc3)c2)[C@H]1C(=O)NCCCN(C)c1ccccc1 (stereo partly drawn) [Compound 80] | 800 to 6000 nM | – |
| C[C@@H]1[C@@H](NC(=O)C2[C@H]([C@H](C)O)[C@H](CO)ON2Cc2cccc(C#CCNS(=O)(=O)c3ccc(-c4ccccc4)cc3)c2)C[C@H]2C[C@@H]1C2(C)C (stereo partly drawn) [Compound 73] | 800 to 6000 nM | – |
| C[C@@H](O)[C@H]1[C@@H](CO)ON(Cc2cccc(C#CCNC(=O)Nc3ccccc3)c2)[C@H]1C(=O)NCCCN(C)c1ccccc1 [Compound 79] | 800 to 6000 nM | – |
| C[C@@H](O)[C@H]1[C@@H](CO)ON(Cc2cccc(C#CCNS(=O)(=O)c3ccc(Oc4ccccc4)cc3)c2)[C@H]1C(=O)NCCCN(C)c1ccccc1 [Compound 72] | 6000 to 50000 nM | – |
| C[C@@H](O)[C@H]1[C@@H](CO)ON(Cc2cccc(C#CCNS(=O)(=O)c3cccc4cccnc34)c2)[C@H]1C(=O)NCCCN(C)c1ccccc1 [Compound 75] | 800 to 6000 nM | – |
| C[C@@H](O)[C@H]1[C@@H](CO)ON(Cc2cccc(C#CCNC(=O)NCc3ccccc3)c2)[C@H]1C(=O)NCCCN(C)c1ccccc1 [Compound 77] | 800 to 6000 nM | – |
| C[C@@H](O)[C@H]1[C@@H](CO)ON(Cc2cccc(C#CCNCc3ccc(-c4ccccc4)cc3)c2)[C@H]1C(=O)NCCCN(C)c1ccccc1 [Compound 71] | 6000 to 50000 nM | – |

Other lines, results leading:

| Ki (Bcl-2) | Bcl-XL binding affinity Ki (Bcl-xL) | SMILES |
| --- | --- | --- |
| < 800 nM | ♯ | CCCNC(=O)c1ccc(-c2cccc(CN3O[C@@H](CO)[C@@H]([C@H](C)O)[C@H]3C(=O)N[C@H]3C[C@H]4C[C@@H]([C@@H]3C)C4(C)C)c2)cc1 [Compound 299] |
| < 800 nM | ♯ | C[C@@H]1[C@@H](NC(=O)[C@@H]2[C@H]([C@H](C)O)[C@H](CO)ON2Cc2cccc(-c3cccc(C(=O)NCCN(CCO)CCO)c3)c2)C[C@H]2C[C@@H]1C2(C)C [Compound 131] |
| < 800 nM | ♯ | C[C@@H]1[C@@H](NC(=O)[C@@H]2[C@H]([C@H](C)O)[C@H](CO)ON2Cc2cccc(-c3cccc(C(=O)N[C@H]4CCNC4)c3)c2)C[C@H]2C[C@@H]1C2(C)C [Compound 114] |
| < 800 nM | ♯ | C[C@@H]1[C@@H](NC(=O)[C@@H]2[C@H]([C@H](C)O)[C@H](CO)ON2Cc2cccc(-c3cccc(C(=O)N[C@H]4CCN(C)C4)c3)c2)C[C@H]2C[C@@H]1C2(C)C [Compound 126] |
| < 800 nM | ♯ | CC(C)[C@H](CN(C)C)NC(=O)c1cccc(-c2cccc(CN3O[C@@H](CO)[C@@H]([C@H](C)O)[C@H]3C(=O)N[C@H]3C[C@H]4C[C@@H]([C@@H]3C)C4(C)C)c2)c1 [Compound 103] |
| < 800 nM | ♯ | CON(C)C(=O)c1ccc(-c2cccc(CN3O[C@@H](CO)[C@@H]([C@H](C)O)[C@H]3C(=O)N[C@H]3C[C@H]4C[C@@H]([C@@H]3C)C4(C)C)c2)cc1 [Compound 124] |
| < 800 nM | ♯ | C[C@@H]1[C@@H](NC(=O)[C@@H]2[C@H]([C@H](C)O)[C@H](CO)ON2Cc2cccc(-c3cccc(C(=O)NCCN4CCCCC4)c3)c2)C[C@H]2C[C@@H]1C2(C)C [Compound 105] |
| < 800 nM | ♯♯ | C[C@@H]1[C@@H](NC(=O)[C@@H]2[C@H]([C@H](C)O)[C@H](CO)ON2Cc2cccc(-c3cccc(C(=O)NCCCO)c3)c2)C[C@H]2C[C@@H]1C2(C)C [Compound 121] |
| 800 to 6000 nM | ♯ | C[C@H](O)[C@@H]1[C@H](CO)ON(Cc2cccc(C#C[C@@H](O)c3ccccc3)c2)[C@@H]1C(=O)N[C@H]1C[C@H]2CC([C@@H]1C)C2(C)C [Compound 52] |
| 800 to 6000 nM | ♯ | CC(O)C1[C@H](CO)ON(Cc2cccc(C#Cc3ccccn3)c2)[C@@H]1C(=O)N[C@H]1C[C@H]2CC([C@@H]1C)C2(C)C (stereo partly drawn) [Compound 32] |
| 800 to 6000 nM | ♯♯ | CC(C)C[C@@H](CN(C)C)NC(=O)c1cccc(-c2cccc(CN3O[C@@H](CO)[C@@H]([C@H](C)O)[C@H]3C(=O)N[C@H]3C[C@H]4C[C@@H]([C@@H]3C)C4(C)C)c2)c1 [Compound 97] |
| 800 to 6000 nM | – | C[C@@H]1[C@@H](NC(=O)[C@@H]2[C@H]([C@H](C)O)[C@H](CO)ON2Cc2cccc(C#CCNCc3c[nH]c4ccccc34)c2)C[C@H]2C[C@@H]1C2(C)C [Compound 68] |
| 800 to 6000 nM | – | C[C@@H]1[C@@H](NC(=O)[C@@H]2[C@H]([C@H](C)O)[C@H](CO)ON2Cc2cccc(C#CCNS(=O)(=O)c3ccccc3)c2)C[C@H]2C[C@@H]1C2(C)C [Compound 76] |
| 800 to 6000 nM | – | C[C@@H]1[C@@H](NC(=O)[C@@H]2[C@H]([C@H](C)O)[C@H](CO)ON2Cc2cccc(C#CCNS(=O)(=O)Cc3ccccc3)c2)C[C@H]2C[C@@H]1C2(C)C [Compound 74] |
| 800 to 6000 nM | – | C[C@@H]1[C@@H](NC(=O)[C@@H]2[C@H]([C@H](C)O)[C@H](CO)ON2Cc2cccc(C#CCNCc3ccccn3)c2)C[C@H]2C[C@@H]1C2(C)C [Compound 66] |
| 800 to 6000 nM | – | C[C@@H]1[C@@H](NC(=O)[C@@H]2[C@H]([C@H](C)O)[C@H](CO)ON2Cc2cccc(C#CCNC(=O)NCc3ccccc3)c2)C[C@H]2C[C@@H]1C2(C)C [Compound 78] |
